Measured values: PMC11768059, “Guanidines Conjugated with Cell-Penetrating Peptides: A New Approach for the Development of Antileishmanial Molecules” (Molecules, 2025)
Several values for one entry are separate records, joined by “and”; a condition that tells them apart may be missing. Equal values may be shown once. Residues, ends and D or L forms follow the SMILES beside them. *: point of attachment. X1 = O=C(/N=C(/NCc1ccc(C(=O)*)cc1)Nc1ccc(Br)cc1)c1ccccc1; code Z = not defined here

Experiments:
[1] = molecular target: T1, cysteine protease LmCPB2.8∆CTE (CPB) (Leishmania mexicana, UniProt P36400); settings: irreversible inhibitor ref 13; cited from earlier work
[2] = cytotoxic activity on peritoneal macrophages; format: cell-based, Swiss mice; settings: Swiss, mouse
Experimental: For the anti-promastigote assays, L. infantum and L. amazonensis cultures in the exponential growth phase were transferred to 96-well plates at a final concentration of 1 × 10^7 promastigotes mL^−1. […] After 72 h, viable promastigotes were determined using the MTT method.
(§1) Anti-promastigote and anti-amastigote assays, the infection index (percentage of infected cells * number of intracellular parasites/numbers of infected cells), and their cytotoxic activity were conducted as previously described.

[3] = tested on: L. amazonensis promastigotes; assay: microbe, parasite or virus in culture; settings: for IC50: read-out: Promastigote IC50 L. amazonensis in active serum
From the text: (§2) Several strategies were employed to increase the stability of peptides, including the incorporation of non-natural amino acids, modifications of the N- and/or C-terminal, cyclization, the use of non-peptide structures (peptidomimetics), and multimerization.

[4] = tested on: L. infantum promastigotes; assay: microbe, parasite or virus in culture; settings: for IC50: read-out: Promastigote IC50 L. infantum in active serum
From the text: as §2

[5] = tested on: L. infantum promastigotes; assay: anti-promastigote assay (MTT) against L. infantum; format: cell-based, Leishmania infantum; settings: 72 h
Experimental: (§3) L. amazonensis promastigotes (MPRO/BR/1972/M1841-LV-79) were grown in LIT culture medium, while L. infantum promastigotes (MNYC/BZ/62/M379) were cultivated in 199 culture medium (Sigma-Aldrich, St. Louis, MO, USA) supplemented with 10% heat-inactivated fetal bovine serum (FBS; Gibco/Invitrogen) and in 10% urine, at 28 °C, until reaching the mid-log phase of growth. Macrophages were sourced from the peritoneal cavity of Swiss mice, using the methodology outlined by de Almeida et al. 2017 [60]. For the anti-promastigote assays, L. infantum and L. amazonensis cultures in the exponential growth phase were transferred to 96-well plates at a final concentration of 1 × 10^7 promastigotes mL^−1. Subsequently, the tested compounds were added at concentrations ranging from 1.28 to 100 µmol L^−1 to assess their anti-promastigote activity. After 72 h, viable promastigotes were determined using the MTT method.
as §1

[6] = tested on: L. amazonensis promastigotes; assay: anti-promastigote assay (MTT) against L. amazonensis; format: cell-based, Leishmania amazonensis; settings: 72 h
Experimental: as §3, §1

[7] = tested on: L. amazonensis intracellular amastigotes; format: cell-based, Leishmania amazonensis
Experimental: as §1

[8] = tested on: L. infantum intracellular amastigotes; format: cell-based, Leishmania infantum
Experimental: as §1

[9] = molecular target: T1, cysteine protease LmCPB2.8∆CTE (CPB); assay: cysteine protease (CPB) enzyme inhibition assay; format: biochemical, Leishmania major; settings: for inhibition at 20 µM: read-out: CPB Inhibitory Activity 20 μM, 20 μM
Experimental: CPB inhibition experiments were performed as described previously by Moreira et al. 2022 [13]. The results were expressed as mean ± standard deviation of two independent replicates.

[10] = eukaryotic membrane mimetic POPC/cholesterol, 50 μM
Experimental: As illustrated in Figure 5 and Figure 6, the analyte in question (peptide, bioconjugate, or guanidine) was added within 120 s, and after an interval of 360 s, the behavior of the membrane mimetic was reanalyzed. After this time, 10% triton was added so that the vesicles could completely release the carboxyfluorescein.
Large unilamellar vesicles (LUVs) composed of POPC (1-palmitoyl-2-oleoyl-sn-glycero-3-phosphatidylcholine) and cholesterol (Chol) (4:1) or POPC, POPS (1-palmitoyl-2-oleoyl-sn-glycero-3-serine), and ergosterol (Erg) (8:1:1) were prepared according to the methods described by Lorenzón et al. 2014 [62].

cathepsin B = molecular target: cathepsin B; set-up: method as in PMID 12574338; settings: cited from earlier work
[11] = peritoneal macrophages, Table 1 (L. amazonensis series)
[12] = peritoneal macrophages, Table 2 (L. infantum series)
[13] = culture medium with active fetal bovine serum

T1 sequence (P36400 126-343): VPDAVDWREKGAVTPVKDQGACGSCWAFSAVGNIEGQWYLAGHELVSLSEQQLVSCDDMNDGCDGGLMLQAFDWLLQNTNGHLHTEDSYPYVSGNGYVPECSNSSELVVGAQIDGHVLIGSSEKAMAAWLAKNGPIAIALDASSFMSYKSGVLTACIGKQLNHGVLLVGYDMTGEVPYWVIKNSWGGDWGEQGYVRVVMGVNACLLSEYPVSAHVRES

## CC(C)C[C@H](NC(=O)[C@H]1O[C@@H]1C(=O)O)C(=O)NCCCCN=C(N)N (relative stereo) [Compound E64, L-trans-epoxysuccinyl-leucylamido-(4-guanidino)butane]
[1]
  inhibition of Leishmania CPB (potency range): nanomolar range

## C[C@@H]1[C@H](O)[C@@H](C)/C=C/C=C/C=C/C=C/C=C/C=C/C=C/[C@H](O[C@@H]2O[C@H](C)[C@@H](O)[C@H](N)[C@@H]2O)C[C@@H]2O[C@](O)(C[C@@H](O)C[C@@H](O)[C@H](O)CC[C@@H](O)C[C@@H](O)CC(=O)O[C@H]1C)C[C@H](O)[C@H]2C(=O)O [Amp B, Amphotericin B, reference compound]
[2]; [11]
  CC50: 99.8 ± 3.7 µM
[3]; Leishmania amazonensis
  IC50: 0.5 ± 0.1 µM
[4]; Leishmania infantum
  IC50: 0.3 ± 0.1 µM

## O=C(O)c1ccc(CN/C(=N/C(=O)c2ccccc2)Nc2ccc(Br)cc2)cc1 [GVL1, (Z)-4-((2-benzoyl-3-(4-bromophenyl)guanidino)methyl) benzoic acid]
[2]; Table 1 (L. amazonensis series)
  CC50: > 1000 µM
[2]; [12]
  CC50: > 2000 µM
[5]; Leishmania infantum
  IC50: 50.8 ± 2.2 µM
[3]; Leishmania amazonensis
  IC50: 65 ± 2.4 µM
[4]; Leishmania infantum
  IC50: 50 ± 1.2 µM

## N=C(N)NCCC[C@H](NC(=O)[C@H](CCCNC(=N)N)NC(=O)[C@H](CCC(N)=O)NC(=O)[C@H](CCCNC(=N)N)NC(=O)[C@H](CCCNC(=N)N)NC(=O)[C@H](CCCCN)NC(=O)[C@H](CCCCN)NC(=O)[C@H](CCCNC(=N)N)NC(=O)CNC(=O)[C@H](Cc1ccc(O)cc1)NC(=O)c1ccc(CN/C(=N/C(=O)c2ccccc2)Nc2ccc(Br)cc2)cc1)C(=O)O [GVL1-TAT] (X1-YGRKKRRQRR-OH)
[6]
  IC50: 5.3 µM and 5.32 µM
[2]; [11]
  CC50: > 1000 µM
[2]; [12]
  CC50: > 2000 µM
[7]; read-out: Amastigote IC50
  IC50: 0.8 ± 0.06 µM
[5]
  IC50: 1.2 ± 0.3 µM
[8]; read-out: Amastigote IC50
  IC50: 3.8 ± 0.3 µM
[3]; [13]
  IC50: 2.6 ± 0.8 µM
[4]; [13]
  IC50: 1.2 ± 0.3 µM
[9]
  IC50: 3.78 ± 0.1 µM
  inhibition at 20 µM: ~92%
[10]
  permeabilization of vesicles (carboxyfluorescein release): no damage was observed in the vesicles

## N=C(N)NCCC[C@H](NC(=O)[C@H](CCCNC(=N)N)NC(=O)[C@H](CCC(N)=O)NC(=O)[C@H](CCCNC(=N)N)NC(=O)[C@H](CCCNC(=N)N)NC(=O)[C@H](CCCCN)NC(=O)[C@H](CCCCN)NC(=O)[C@H](CCCNC(=N)N)NC(=O)CNC(=O)[C@@H](N)Cc1ccc(O)cc1)C(=O)O [TAT, reference compound] (H-YGRKKRRQRR-OH; N-terminus assumed)
[6]
  Promastigote IC50: no activity
[2]; [11]
  CC50: > 1000 µM
[2]; [12]
  CC50: > 2000 µM
[7]
  Amastigote IC50: no activity
[5]
  Promastigote IC50: no leishmanicidal activity
[8]
  Amastigote IC50: no leishmanicidal activity
[3]; [13]
  Promastigote IC50 L. amazonensis in active serum: did not display anti-promastigote activity
[4]; [13]
  Promastigote IC50 L. infantum in active serum: did not display anti-promastigote activity
[9]
  inhibition at 20 µM: 9.42 ± 0.01%

## Z-Arg-Leu-Val-Gly-Ile-Val-Ome ({code Z}-RLVGIV-OMe; reading uncertain; also: printed as Z-Arg-Leu-Val-Gly-Ile-Val-Ome)
Cathepsin B
  Ki: 88 pM
